Values after ≈ are worked out from the molar mass of the structure shown. Read-outs that look alike come from different tables or passages of the source.
Key:
Kinetic solubility = type: physicochemical; conditions: kinetic from dmso stock
[1] = Liver microsomes metabolic stability, rat; type: in vitro ADME
Protocol: Metabolic stability of test compounds was evaluated in pooled rat, mouse, dog, and cynomolgus monkey liver microsomes (BD Biosciences, San Jose, CA). The incubation conditions were as follows: 1 μM of the tested compound, 1 mM NADPH, 0.5 mg/mL microsomal protein in 0.1 M potassium phosphate buffer (pH 7.4). Following a 5-minute pre-incubation period, the enzymatic reactions were initiated by the addition of NADPH and test compound to the microsomes diluted in phosphate buffered saline. The mixtures were incubated at 37° C. for 0, 20, 40, and 60 min.
Compound concentrations were assessed by LC-MS/MS. Intrinsic clearance based upon microsomal stability data was determined using a substrate depletion method and scaled to hepatic clearance using the well-stirred model (Obach, R. S.; Baxter, J. G.; Liston, T. E.; Silber, B. M.; Jones, B. C.; MacIntyre, F.; Rance, D. J.; Wastall, P., “The Prediction of Human Pharmacokinetic Parameters from Preclinical and in vitro Metabolism Data”, J. Pharmacol. Exp. Ther., (1997), 283 (1), 46-58).

[2] = In vitro plasma protein binding, mouse; type: in vitro ADME; conditions: pooled mouse plasma, read-out: PPB % (H/R/M) (converted)
Protocol: (§1) In vitro plasma protein binding (n=2) was determined in pooled mouse, rat, and human plasma (Bioreclamation, Inc., Hicksville, NY) by equilibrium dialysis using a Rapid Equilibrium Dialysis (RED) device (Pierce Biotechnology/Thermo Fisher Scientific; Rockford, IL) with a molecular weight cut-off of 8000 Daltons. Test compounds were added to plasma. Plasma samples were equilibriated with phosphate-buffered saline at 37° C. for 4 hours. Compound concentrations in post-dialysis plasma and buffer samples were measured by LC-MS/MS. The percent unbound fraction in plasma for each compound was calculated by dividing the compound concentration in the post-dialysis buffer by that measured in the post-dialysis plasma and multiplying by 100%.

[3] = biological target: Human Cbl-b (residues 40-426) (Homo sapiens (Human), UniProt Q13191); test: Cbl-b SPR assay (incl. multi-point chaser variation); type: binding
Chain of Human Cbl-b (residues 40-426) (Q13191 40-426): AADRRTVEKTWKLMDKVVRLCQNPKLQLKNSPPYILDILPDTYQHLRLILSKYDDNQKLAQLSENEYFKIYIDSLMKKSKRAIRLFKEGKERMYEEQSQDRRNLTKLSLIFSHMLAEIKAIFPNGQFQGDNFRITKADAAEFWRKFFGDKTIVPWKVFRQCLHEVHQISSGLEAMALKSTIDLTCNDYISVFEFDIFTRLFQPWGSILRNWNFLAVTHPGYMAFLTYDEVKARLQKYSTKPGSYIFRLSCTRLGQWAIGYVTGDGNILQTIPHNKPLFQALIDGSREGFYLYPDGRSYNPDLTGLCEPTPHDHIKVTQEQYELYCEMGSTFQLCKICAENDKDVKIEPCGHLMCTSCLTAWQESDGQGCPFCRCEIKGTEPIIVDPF
Protocol: Affinity of binding to Cbl-b and c-Cbl for compounds described herein can be assessed by surface plasmon resonance (SPR) according to the following protocol. All experiments were recorded on a Biacore™ 8K or Biacore™ 8K+ (Cytiva) with both surface preparation and experimental measurements performed at 20° C. in an assay buffer consisting of 50 mM HEPES, pH 7.5, 0.15 M NaCl, 0.001% (v/v) Tween® 20, 0.2 mM tris(2-carboxyethyl)phosphine, 0.025% (w/v) carboxymethylated dextran (average MW 10 kDa), 0.2% (w/v) PEG 3350, and 2% DMSO. […]
For SPR measurements, 6 concentrations with 2 fold serial dilution were measured with blanks flanking each series for double referencing. […] SPR sensorgrams were recorded in multi-cycle kinetics format, with a contact time of 60 seconds and a flow rate of 40 μl/min, the dissociation time was varied between 120-1200 seconds aiming for 4-5 half-lives of the measured interaction. […]
In the case of potent compounds, the protein-compound half-life cannot be accurately measured using routine fitting of the single cycle titration data. The kd is measured independently by determining the percentage unoccupied compound binding site over time by measuring the binding of a chaser compound measured by SPR.
Chaser binding was measured by a multicycle kinetics SPR experiment using a contact time of 20 seconds, a flow rate of […], and a dissociation time of 120 seconds. […]

CYP3A4 = CYP3A4 (Homo sapiens (Human), UniProt P08684); test: Reversible CYP inhibition, CYP3A4; type: in vitro ADME
Chain of CYP3A4 (P08684 whole entry): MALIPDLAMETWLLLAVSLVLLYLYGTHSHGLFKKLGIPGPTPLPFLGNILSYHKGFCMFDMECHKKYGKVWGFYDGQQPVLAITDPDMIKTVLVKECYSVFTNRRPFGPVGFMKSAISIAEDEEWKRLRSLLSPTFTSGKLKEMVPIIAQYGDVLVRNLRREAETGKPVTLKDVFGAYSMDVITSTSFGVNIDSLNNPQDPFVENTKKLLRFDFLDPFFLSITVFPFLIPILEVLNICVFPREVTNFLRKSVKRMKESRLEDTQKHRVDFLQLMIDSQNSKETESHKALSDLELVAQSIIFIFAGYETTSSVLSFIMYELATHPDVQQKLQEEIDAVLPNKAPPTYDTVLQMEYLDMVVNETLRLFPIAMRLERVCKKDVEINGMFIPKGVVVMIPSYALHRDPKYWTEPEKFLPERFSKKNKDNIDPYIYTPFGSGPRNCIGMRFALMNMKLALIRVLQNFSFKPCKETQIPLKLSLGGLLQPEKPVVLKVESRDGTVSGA
Source text: Reversible CYP inhibition by compounds described herein can be measured by protocols described by Halladay, J. S.; Delarosa, E. M.; Tran, D.; Wang, L.; Wong, S.; Khojasteh, S. C., “High-Throughput, 384-Well, LC-MS/MS CYP Inhibition Assay Using Automation, Cassette-Analysis Technique, and Streamlined Data Analysis”, Drug. Metab. Lett. 2011, 5 (3), 220-230, incorporated herein by reference.
In the CYP3A4 measurements, potency is less desirable.

[4] = In vitro plasma protein binding, human; type: in vitro ADME; conditions: pooled human plasma, read-out: PPB % (H/R/M) (converted)
Protocol: as §1

Mouse PK = type: in vivo

CC(C)[C@H]1CN(C)CCN1Cc1cc(C(=O)Nc2cccc(C3(Cc4nncn4C)CC(F)(F)C3)c2)nc(C2CC2)c1 [Compound 224, (S)-6-cyclopropyl-N-(3-(3,3-difluoro-1-((4-methyl-4H-1,2,4-triazol-3-yl)methyl)cyclobutyl)phenyl)-4-((2-isopropyl-4-methylpiperazin-1-yl)methyl)picolinamide]
solubility (Kinetic solubility; value in parentheses, not explained, read-out: Kinet. Solub. (uM), second value in parentheses): 8.5 µM (≈ 4.91 µg/mL)
solubility (Kinetic solubility; read-out: Kinet. Solub.): 8.3 µM (≈ 4.8 µg/mL)
LM (H/R/M/D/C) [1]: 38
fraction unbound at 4 h [2]: 0.06
Kd ([3]; read-out: SPR Kd kin): 5.6 nM
SPR Kd kin (select.) ([3]; selectivity): 1.3 x
IC50 (CYP3A4; M, read-out: CYP3A4 IC50 (M/T)): 640 nM
IC50 (CYP3A4; T): 6700 nM
fraction unbound at 4 h [4]: 0.14
Mouse PK unbound CLp (Mouse PK): (unbound CLp 683)
clearance (Mouse PK; plasma, intravenous, read-out: Mouse PK CLp): 41 mL/min/kg
bioavailability (Mouse PK; plasma, oral, read-out: Mouse PK F %): 3.4%
